Test results published in the NIST ThermoML archive (doi:10.1016/j.jct.2005.01.007).
Several values for one entry are separate records, joined by “and”; a condition that tells them apart may be missing. Equal values may be shown once.

Assays:
[1] = refractive index (Na D-line) (dimensionless); details: 298.15 K; 101.33 kPa; Liquid; Standard Abbe refractometry
[2] = 101 kPa, Liquid
[3] = xn = mol fraction of the nth substance listed; details: 101 kPa, Liquid

c1ccccc1 [benzene]
Details | refractive index
[1] | 1.4979

[2]
Details | mass density [kg/m3]
298.15 K | 873.62
328.15 K | 841.52

c1ccccc1 [benzene] + CCC(=O)c1ccccc1
[3], x1 = 1
Details | mass density [kg/m3]
298.15 K | 873.62
328.15 K | 841.52

CCCCc1ccccc1 [butylbenzene]
Details | refractive index
[1] | 1.4874

[2]
Details | mass density [kg/m3]
298.15 K | 856.23
328.15 K | 832.29

CCCCc1ccccc1 [butylbenzene] + CCC(=O)c1ccccc1
[3], x1 = 1
Details | mass density [kg/m3]
298.15 K | 856.23
328.15 K | 832.29

CCC(=O)c1ccccc1 [ethyl phenyl ketone]
Details | refractive index
[1] | 1.5245

[2]
Details | mass density
298.15 K | 1005.24 kg/m3 and 1005.26 kg/m3 and 1005.29 kg/m3
328.15 K | 979.5 kg/m3 [middle of 4 runs]

CCC(=O)c1ccccc1 [ethyl phenyl ketone] + CCCCc1ccccc1
mass density [kg/m3], [3]
Details | 298.15 K | 328.15 K
x2 = 0 | 1005.29 | 979.54
x2 = 0.0906 | 989.98 | 964.4
x2 = 0.1842 | 974.56 | 949.13
x2 = 0.2739 | 960.14 | 934.89
x2 = 0.3688 | 945.31 | 920.21
x2 = 0.4531 | 932.45 | 907.51
x2 = 0.5519 | 917.76 | 893
x2 = 0.6164 | 908.4 | 883.77
x2 = 0.711 | 894.97 | 870.51
x2 = 0.8053 | 881.97 | 857.68
x2 = 0.9044 | 868.69 | 844.57

CCC(=O)c1ccccc1 [ethyl phenyl ketone] + CCc1ccccc1
mass density [kg/m3], [3]
Details | 298.15 K | 328.15 K
x2 = 0 | 1005.29 | 979.5
x2 = 0.1025 | 992.18 | 966.3
x2 = 0.1878 | 981.02 | 955.11
x2 = 0.2741 | 969.49 | 943.55
x2 = 0.3668 | 956.85 | 930.84
x2 = 0.4491 | 945.37 | 919.32
x2 = 0.5504 | 930.94 | 904.84
x2 = 0.6359 | 918.44 | 892.32
x2 = 0.7246 | 905.22 | 879.02
x2 = 0.831 | 888.99 | 862.68
x2 = 0.9093 | 876.76 | 850.4

CCC(=O)c1ccccc1 [ethyl phenyl ketone] + Cc1ccccc1
mass density [kg/m3], [3]
Details | 298.15 K | 328.15 K
x2 = 0 | 1005.26 | 979.48
x2 = 0.09253 | 995.05 | 969.14
x2 = 0.1872 | 984.09 | 958.07
x2 = 0.2777 | 973.13 | 946.96
x2 = 0.3634 | 962.24 | 935.91
x2 = 0.4547 | 950.09 | 923.57
x2 = 0.5572 | 935.66 | 908.94
x2 = 0.6402 | 923.36 | 896.42
x2 = 0.7203 | 910.9 | 883.78
x2 = 0.8278 | 893.2 | 865.77
x2 = 0.9099 | 878.86 | 851.18

CCC(=O)c1ccccc1 [ethyl phenyl ketone] + c1ccccc1
mass density [kg/m3], [3]
Details | 298.15 K | 328.15 K
x2 = 0 | 1005.24 | 979.46
x2 = 0.1079 | 995.49 | 969.44
x2 = 0.1982 | 986.83 | 960.49
x2 = 0.2725 | 979.24 | 952.7
x2 = 0.3691 | 968.74 | 941.82
x2 = 0.4557 | 958.59 | 931.35
x2 = 0.5205 | 950.57 | 922.98
x2 = 0.6278 | 936.19 | 907.95
x2 = 0.7441 | 919.01 | 889.82
x2 = 0.8198 | 906.77 | 876.8
x2 = 0.8966 | 893.38 | 862.6

CCc1ccccc1 [ethylbenzene]
Details | refractive index
[1] | 1.4931

[2]
Details | mass density [kg/m3]
298.15 K | 862.26
328.15 K | 835.86

CCc1ccccc1 [ethylbenzene] + CCC(=O)c1ccccc1
[3], x1 = 1
Details | mass density [kg/m3]
298.15 K | 862.26
328.15 K | 835.86

Cc1ccccc1 [toluene]
Details | refractive index
[1] | 1.4941

[2]
Details | mass density [kg/m3]
298.15 K | 862.25
328.15 K | 834.25

Cc1ccccc1 [toluene] + CCC(=O)c1ccccc1
[3], x1 = 1
Details | mass density [kg/m3]
298.15 K | 862.25
328.15 K | 834.25
